Legend:
[1] = test system: houseflies (Musca domestica); test: Relative toxicity to houseflies, topical drop on thorax; assay type: in vivo; details: 5-benzyl-3-furylmethyl (1R)-trans-chrysanthemate = 1000; inverse ratio of LD50; topical, female flies
Description: (§1) The toxicity of these new esters was tested by the procedure described in detail in our above mentioned application and the following results were obtained:
(§2) The insecticidal acitivity of the esters of the invention was assessed against houseflies and mustard beetles using the following techniques:
Female flies were treated on the thorax with a one microliter drop of insecticide dissolved in acetone. Two replicates of 15 flies were used at each dose rate and 6 dose rates were used per compound under test. After treatment, the flies were maintained at a temperature of 20° C.±1° and kill was assessed 24 and 48 hours after treatment. LD50 values were calculated in micrograms of insecticide per fly and relative toxicities were calculated from the inverse ratios of the LD50 values. (see Sawicki et al, Bulletin of the World Health Organization, 35,893, (1966) and Sawicki et al, Entomologia and Exp. Appl. 10, 253, (1967)).
(§3) Relative toxicities were calculated by comparison with 5-benzyl-3-furylmethyl(1R)-trans-chrysanthemate which is one of the most toxic chrysanthemate esters known to houseflies and mustard beetles, its toxicity being about 24 times that of allethrin to houseflies and 65 times that of allethrin to mustard beetles.

[2] = test system: mustard beetles (Phaedon cochleariae Fab); test: Relative toxicity to mustard beetles, topical micro drop; assay type: in vivo; details: 5-benzyl-3-furylmethyl (1R)-trans-chrysanthemate = 1000; inverse ratio of LD50; topical, 48 hours
Description: as §1, §2
Acetone solutions of the test compound were applied ventrally to adult mustard beetles using a micro drop applicator. The treated insects were maintained for 48 hours after which time kill is assessed. Two replicates of 40 to 50 mustard beetles were used at each dose level and 3 to 4 dose levels were used for each compound. Again, LD50 values were calculated and relative toxicities were calculated for the inverse ratios of LD50 (see Elliott et al, J. Sci. Food Agric. 20, 561, (1969)).
as §3

With CC1(C)C(C=C(Cl)Cl)C1C(=O)OCC#CCOc1ccccc1 (racemic) [Compound ME5, 4-Phenoxybut-2-ynyl(1RS)-cis,trans-3-(2,2-dichlorovinyl)-2,2-dimethylcyclopropane carboxylate] the “Relative Toxicity, Houseflies” value [1] was 300 and the “Relative Toxicity, Mustard Beetles” value [2] was 40.
For CC1(C)C(C=C(Cl)Cl)C1C(=O)OC(C#N)c1coc(Cc2ccccc2)c1 (racemic) [Compound P21N, (αRS)-Cyano-5-benzyl-3-furylmethyl-(1RS)-cis-trans-3-(2,2-dichlorovinyl)-2,2-dimethyl cyclopropane carboxylate], the “Relative Toxicity, Houseflies” value [1] was 100 and the “Relative Toxicity, Mustard Beetles” value [2] was 2000.
In the case of CC1(C)C(C=C(Cl)Cl)C1C(=O)OC(C#N)c1cccc(Oc2ccccc2)c1 (racemic) [Compound P29F, (αRS)-cyano-3-phenoxybenzyl(1RS)-cis-trans-2,2-dimethyl-3-(2,2-dichlorovinyl)-cyclopropane carboxylate], the “Relative Toxicity, Houseflies” value [1] is reported as 1700.
With CC1(C)[C@H](C=C(Cl)Cl)[C@H]1C(=O)OCc1cccc(C(=O)c2ccccc2)c1 (racemic) [Compound P39B, 3-benzoylbenzyl(1RS)-trans-2,2-dimethyl-3-(2,2-dichlorovinyl)-cyclopropane carboxylate] the “Relative Toxicity, Houseflies” value [1] was 10 and the “Relative Toxicity, Mustard Beetles” value [2] was 590.
For CC1(C)C(C=C(Cl)Cl)C1C(=O)OC1C=C(Cc2ccccc2)C(=O)C1 (racemic) [ME8, (±)-2-benzylcyclopentenon-4-yl(1RS)-cis,trans-3,(2,2-dichlorovinyl)-2,2-dimethylcyclopropane carboxylate], the “Relative Toxicity, Houseflies” value [1] was 50 and the “Relative Toxicity, Mustard Beetles” value [2] was 265.
In the case of CC1(C)[C@H](C=C(Cl)Cl)[C@H]1C(=O)OCc1cccc(Cc2ccccc2)c1 (relative stereo) [Compound P21I], the “Relative Toxicity, Houseflies” value [1] is reported as 170 and the “Relative Toxicity, Mustard Beetles” value [2] is reported as 420.
With CC1(C)[C@H](C(=O)OCc2cccc(Cc3ccccc3)c2)[C@@H]1C=C(Cl)Cl (relative stereo) [Compound P21J] the “Relative Toxicity, Houseflies” value [1] was 360 and the “Relative Toxicity, Mustard Beetles” value [2] was 350.
In the case of CC1(C)[C@H](C(=O)OC(C#N)c2cccc(Oc3ccccc3)c2)[C@@H]1C=C(Cl)Cl (relative stereo) [Compound P29G, (αRS)-cyano-3-phenoxybenzyl(1RS)-cis-2,2-dimethyl-3-(2,2-dichlorovinyl)-cyclopropane carboxylate], the “Relative Toxicity, Houseflies” value [1] is reported as 3800 and the “Relative Toxicity, Mustard Beetles” value [2] is reported as 2400.
In the case of CC1(C)[C@H](C=C(Cl)Cl)[C@H]1C(=O)OC(C#N)c1cccc(Oc2ccccc2)c1 (relative stereo) [Compound P29H, (αRS)-cyano-3-phenoxybenzyl(1RS)-trans-2,2-dimethyl-3-(2,2-dichlorovinyl)-cyclopropane carboxylate], the “Relative Toxicity, Houseflies” value [1] is reported as 1800 and the “Relative Toxicity, Mustard Beetles” value [2] is reported as 750.
In the case of CC1(C)[C@H](C=C(Cl)Cl)[C@H]1C(=O)OC(C#N)c1cccc(C(=O)c2ccccc2)c1 (relative stereo) [Compound P39F, (αRS)-cyano-3-benzoylbenzyl(1RS)-trans-2,2-dimethyl-3-(2,2-dichlorovinyl)-cyclopropane carboxylate], the “Relative Toxicity, Houseflies” value [1] is reported as 80 and the “Relative Toxicity, Mustard Beetles” value [2] is reported as 600.
In the case of C=CC=CCC1=C(C)C(OC(=O)C2C(C=C(Cl)Cl)C2(C)C)CC1=O (single isomer, unassigned) [Compound P21M], the “Relative Toxicity, Houseflies” value [1] is reported as 19 and the “Relative Toxicity, Mustard Beetles” value [2] is reported as 370.
In the case of C=C/C=C\CC1=C(C)C(OC(=O)[C@@H]2[C@@H](/C=C\CC)C2(C)C)CC1=O (single isomer, unassigned) [Compound R], the “Relative Toxicity, Houseflies” value [1] is reported as 30 and the “Relative Toxicity, Mustard Beetles” value [2] is reported as 300.
With CCCC=C[C@@H]1[C@@H](C(=O)OCc2coc(Cc3ccccc3)c2)C1(C)C [B] the “Relative Toxicity, Houseflies” value [1] was 630 and the “Relative Toxicity, Mustard Beetles” value [2] was 890.
In the case of C=CCC1=C(C)C(OC(=O)[C@@H]2[C@@H](C=C(C)C)C2(C)C)CC1=O (stereo partly shown) [Bioallethrin, reference compound], the “Relative Toxicity, Houseflies” value [1] is reported as 60 and the “Relative Toxicity, Mustard Beetles” value [2] is reported as 20.
In the case of CCCCC=C[C@@H]1[C@@H](C(=O)OCc2coc(Cc3ccccc3)c2)C1(C)C [Compound C], the “Relative Toxicity, Houseflies” value [1] is reported as 270 and the “Relative Toxicity, Mustard Beetles” value [2] is reported as 420.
With CCC=C(C)C1C(C(=O)OCc2coc(Cc3ccccc3)c2)C1(C)C (stereo not shown) [Compound H] the “Relative Toxicity, Houseflies” value [1] was less than 7 and the “Relative Toxicity, Mustard Beetles” value [2] was 10.
CCCC=C(C)C1C(C(=O)OCc2coc(Cc3ccccc3)c2)C1(C)C (stereo not shown) [Compound I] was tested, and the “Relative Toxicity, Houseflies” value [1] was less than 7 and the “Relative Toxicity, Mustard Beetles” value [2] was less than 10.
For CC1(C)[C@H](C(=O)OCC#CCOc2ccccc2)[C@@H]1C=C(F)F [Compound ME3, 4-Phenoxybut-2-ynyl(1R)cis-3-(2,2-difluorovinyl)-2,2-dimethylcyclopropane carboxylate], the “Relative Toxicity, Houseflies” value [1] was 150 and the “Relative Toxicity, Mustard Beetles” value [2] was 30.
CC1(C)[C@H](C=C(F)F)[C@H]1C(=O)OCC#CCOc1ccccc1 [Compound ME4, 4-Phenoxybut-2-ynyl(1R)-trans-3-(2,2-difluorovinyl)-2,2-dimethylcyclopropane carboxylate] was tested, and the “Relative Toxicity, Houseflies” value [1] was 60 and the “Relative Toxicity, Mustard Beetles” value [2] was 70.
CC1(C)[C@H](C(=O)OCC#CCOc2ccccc2)[C@@H]1C=C(Br)Br [Compound ME6, 4-Phenoxybut-2-ynyl(1R)cis-3-(2,2-dibromovinyl)-2,2-dimethylcyclopropane carboxylate] was tested, and the “Relative Toxicity, Houseflies” value [1] was 390 and the “Relative Toxicity, Mustard Beetles” value [2] was 50.
For COC(=O)C=C[C@@H]1[C@@H](C(=O)OCc2coc(Cc3ccccc3)c2)C1(C)C [Compound P19A], the “Relative Toxicity, Houseflies” value [1] was 91 and the “Relative Toxicity, Mustard Beetles” value [2] was 100.
CCOC(=O)C=C[C@@H]1[C@@H](C(=O)OCc2coc(Cc3ccccc3)c2)C1(C)C [Compound P19B] was tested, and the “Relative Toxicity, Houseflies” value [1] was 67 and the “Relative Toxicity, Mustard Beetles” value [2] was 320.
In the case of CCCOC(=O)C=C[C@@H]1[C@@H](C(=O)OCc2coc(Cc3ccccc3)c2)C1(C)C [Compound P19C], the “Relative Toxicity, Houseflies” value [1] is reported as 24 and the “Relative Toxicity, Mustard Beetles” value [2] is reported as 40.
CCOC(=O)C(C)=C[C@@H]1[C@@H](C(=O)OCc2coc(Cc3ccccc3)c2)C1(C)C [Compound P19D] was tested, and the “Relative Toxicity, Houseflies” value [1] was 290 and the “Relative Toxicity, Mustard Beetles” value [2] was 440.
For CCCOC(=O)C(C)=C[C@@H]1[C@@H](C(=O)OCc2coc(Cc3ccccc3)c2)C1(C)C [Compound P19E], the “Relative Toxicity, Houseflies” value [1] was 290 and the “Relative Toxicity, Mustard Beetles” value [2] was 500.
With CCC(=C[C@@H]1[C@@H](C(=O)OCc2coc(Cc3ccccc3)c2)C1(C)C)C(=O)OC [Compound P19F] the “Relative Toxicity, Houseflies” value [1] was 130 and the “Relative Toxicity, Mustard Beetles” value [2] was 360.
In the case of CCOC(=O)C(=C[C@@H]1[C@@H](C(=O)OCc2coc(Cc3ccccc3)c2)C1(C)C)CC [Compound P19G], the “Relative Toxicity, Houseflies” value [1] is reported as 300 and the “Relative Toxicity, Mustard Beetles” value [2] is reported as 500.
In the case of CCCOC(=O)C(=C[C@@H]1[C@@H](C(=O)OCc2coc(Cc3ccccc3)c2)C1(C)C)CC [Compound P19H], the “Relative Toxicity, Houseflies” value [1] is reported as 20 and the “Relative Toxicity, Mustard Beetles” value [2] is reported as 50.
For CC1(C)[C@H](C=C(Cl)Cl)[C@H]1C(=O)OCc1coc(Cc2ccccc2)c1 [Compound P21A], the “Relative Toxicity, Houseflies” value [1] was 2500 and the “Relative Toxicity, Mustard Beetles” value [2] was 2700.
For CC1(C)[C@H](C=C(Br)Br)[C@H]1C(=O)OCc1coc(Cc2ccccc2)c1 [Compound P21B], the “Relative Toxicity, Houseflies” value [1] was 1100 and the “Relative Toxicity, Mustard Beetles” value [2] was 1900.
For CC1(C)C(C=C(Cl)Cl)C1C(=O)OCc1cccc(Cc2ccccc2)c1 (stereo not shown) [Compound P21K], the “Relative Toxicity, Houseflies” value [1] was 340 and the “Relative Toxicity, Mustard Beetles” value [2] was 350.
COC(=O)C(Cl)=C[C@@H]1[C@@H](C(=O)OCc2coc(Cc3ccccc3)c2)C1(C)C [Compound P24A, 5-benzyl-3-furylmethyl ester of 2,2-dimethyl-3-(2-chloro-2-carbomethoxyvinyl)cyclopropane carboxylic acid] was tested, and the “Relative Toxicity, Houseflies” value [1] was 82 and the “Relative Toxicity, Mustard Beetles” value [2] was 310.
For CCOC(=O)C(Cl)=C[C@@H]1[C@@H](C(=O)OCc2coc(Cc3ccccc3)c2)C1(C)C [Compound P24B], the “Relative Toxicity, Houseflies” value [1] was 150 and the “Relative Toxicity, Mustard Beetles” value [2] was 310.
CCCOC(=O)C(Cl)=C[C@@H]1[C@@H](C(=O)OCc2coc(Cc3ccccc3)c2)C1(C)C [Compound P24C] was tested, and the “Relative Toxicity, Houseflies” value [1] was 53 and the “Relative Toxicity, Mustard Beetles” value [2] was 120.
CCOC(=O)C(Br)=C[C@@H]1[C@@H](C(=O)OCc2coc(Cc3ccccc3)c2)C1(C)C [Compound P24D] was tested, and the “Relative Toxicity, Houseflies” value [1] was 450 and the “Relative Toxicity, Mustard Beetles” value [2] was 290.
CC1(C)[C@H](C(=O)OCc2cccc(Oc3ccccc3)c2)[C@@H]1C=C(Br)Br [Compound P29A, 3-phenoxybenzyl(1R)cis-2,2-dimethyl-3-(2,2-dibromovinyl)cyclopropane carboxylate] was tested, and the “Relative Toxicity, Houseflies” value [1] was 2200 and the “Relative Toxicity, Mustard Beetles” value [2] was 1600.
C=C(C)C1C(C(=O)OCc2coc(Cc3ccccc3)c2)C1(C)C (stereo not shown) [F] was tested, and the “Relative Toxicity, Houseflies” value [1] was 21.
CC=C(C)C1C(C(=O)OCc2coc(Cc3ccccc3)c2)C1(C)C (stereo not shown) [G] was tested, and the “Relative Toxicity, Houseflies” value [1] was 18.

— patent US4622337A, “2,2-dimethyl-3-(2-halovinyl)cyclopropane carboxlic acid ester pesticides” (priority 1972, dated 1986)
